Numbered stars: 1 amine (or outer) side, 2 acyl side, 3 side chain; on linkers, the order of the positions; unused ones are H or OH. Bridge positions count the residues as written; N and C are the ends. Square brackets hold non-standard residues; d marks the D form. Peptide text beside a SMILES is read from it. X2 = O=C(CC1(S[*:2])CCCCC1)[*:1]
Key:
Rattus norvegicus [1] = assay: (§1) In vivo anti-oxytocic activity was determined.; format: functional
Vasopressin V1a receptor = Vasopressin V1a receptor (Rattus norvegicus, UniProt P30560); assay: (§2) Anti-vasopressor activity at V1a receptor; conditions: read-out: pA2 (converted)
[2] = molecular target: T1, Oxytocin receptor (Rattus norvegicus) (UniProt P70536); assay: Compound was evaluated for the oxytocic activity with out Mg2+.
T1 sequence (whole entry): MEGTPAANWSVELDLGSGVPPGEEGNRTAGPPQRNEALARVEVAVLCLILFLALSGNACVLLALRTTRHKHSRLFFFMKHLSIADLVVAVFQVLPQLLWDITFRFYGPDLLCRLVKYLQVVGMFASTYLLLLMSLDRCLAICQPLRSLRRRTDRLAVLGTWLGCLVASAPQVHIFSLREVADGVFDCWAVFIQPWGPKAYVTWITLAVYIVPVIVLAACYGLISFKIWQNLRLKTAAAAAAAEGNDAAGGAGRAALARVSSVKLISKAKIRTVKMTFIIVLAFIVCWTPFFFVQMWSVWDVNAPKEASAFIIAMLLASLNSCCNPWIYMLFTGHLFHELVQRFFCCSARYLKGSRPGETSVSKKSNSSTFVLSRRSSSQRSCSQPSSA

[3] = molecular target: Vasopressin V2 receptor (Rattus norvegicus) (UniProt Q00788); assay: Antidiuretic activity at V2 receptor.; conditions: Urine
Vasopressin V2 receptor = Vasopressin V2 receptor (Rattus norvegicus, UniProt Q00788); assay: (§3) Antidiuretic activity at V2 receptor; format: tissue-based, Urine; conditions: read-out: pA2 (converted)
Oxytocin receptor [4] = molecular target: T2, Oxytocin receptor (Rattus norvegicus, UniProt P70536); assay: In vitro anti-oxytocic activity with 0.5 mM Mg2+.; conditions: read-out: pA2 (converted)
T2 sequence (P70536 whole entry): T1 sequence (whole entry)

Oxytocin receptor [5] = molecular target: T2, Oxytocin receptor; assay: In vitro antioxycic activity with out Mg2+.; conditions: read-out: pA2 (converted)
Rattus norvegicus [6] = assay: as §1; format: functional, organism-based; conditions: read-out: pA2 (converted)
Rattus norvegicus [7] = assay: (§4) In vivo activity for the anti-oxytocic activity.; format: functional, organism-based; conditions: read-out: pA2 (converted)
Rattus norvegicus [8] = assay: as §4; format: functional
[9] = molecular target: Vasopressin V2 receptor (Rattus norvegicus) (UniProt Q00788); assay: as §3; format: tissue-based; conditions: Urine
[10] = molecular target: Vasopressin V1a receptor (Rattus norvegicus) (UniProt P30560); assay: as §2
Oxytocin receptor [11] = molecular target: T2, Oxytocin receptor; assay: In vitro anti-oxytocic activity with out Mg2+.; conditions: read-out: pA2 (converted)
[12] = molecular target: T1, Oxytocin receptor (Rattus norvegicus); assay: Compound was evaluated for the oxytocic activity with 0.5 mM Mg2+.

Sequence of Vasopressin V1a receptor (P30560 whole entry): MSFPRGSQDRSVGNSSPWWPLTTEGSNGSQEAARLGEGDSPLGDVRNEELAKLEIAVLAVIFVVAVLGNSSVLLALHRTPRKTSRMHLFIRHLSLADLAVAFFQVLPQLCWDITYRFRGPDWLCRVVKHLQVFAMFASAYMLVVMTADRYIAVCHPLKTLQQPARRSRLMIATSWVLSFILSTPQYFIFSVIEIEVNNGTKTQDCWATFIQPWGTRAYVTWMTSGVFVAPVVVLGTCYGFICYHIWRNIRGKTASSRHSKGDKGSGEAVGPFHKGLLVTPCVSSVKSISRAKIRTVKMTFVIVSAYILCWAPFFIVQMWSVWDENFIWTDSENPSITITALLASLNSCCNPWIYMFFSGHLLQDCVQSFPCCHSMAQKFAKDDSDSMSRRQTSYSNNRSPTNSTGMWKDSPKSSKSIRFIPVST
Sequence of Vasopressin V1a receptor (Rattus norvegicus) (P30560 whole entry, looked up): as the sequence (P30560 whole entry) above
Sequence of Vasopressin V2 receptor (Q00788 whole entry): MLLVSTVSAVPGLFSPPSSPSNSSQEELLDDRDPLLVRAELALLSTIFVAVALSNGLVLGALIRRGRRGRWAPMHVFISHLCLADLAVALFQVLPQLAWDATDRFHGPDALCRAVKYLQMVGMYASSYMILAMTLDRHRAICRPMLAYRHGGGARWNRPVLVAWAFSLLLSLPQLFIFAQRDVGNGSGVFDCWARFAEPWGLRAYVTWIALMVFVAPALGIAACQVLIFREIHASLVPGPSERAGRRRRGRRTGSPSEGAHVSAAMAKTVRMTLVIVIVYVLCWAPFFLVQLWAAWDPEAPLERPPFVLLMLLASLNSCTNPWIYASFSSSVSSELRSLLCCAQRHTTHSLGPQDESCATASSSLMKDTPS
Sequence of Vasopressin V2 receptor (Rattus norvegicus) (Q00788 whole entry): as above

Question: For CC[C@H](C)[C@@H]1NC(=O)[C@H](Cc2ccc(OC)cc2)NC(=O)CC2(CCCCC2)SSC[C@H](C(=O)N2CCC[C@H]2C(=O)N[C@@H](CCCN)C(=O)NCC(N)=O)NC(=O)[C@H](CC(N)=O)NC(=O)[C@H](CCC(N)=O)NC1=O, which ED (Rattus norvegicus [1]) is on record?
Answer: Its ED is 3.11 nM/kg.

Question: Which ED (Rattus norvegicus [1]) does the source give for CC[C@H](C)[C@@H]1NC(=O)[C@@H](Cc2c[nH]c3ccccc23)NC(=O)CC2(CCCCC2)SSC[C@@H](C(=O)N2CCC[C@H]2C(=O)N[C@@H](CCCN)C(=O)NCC(N)=O)NC(=O)[C@H](CC(N)=O)NC(=O)[C@H]([C@@H](C)O)NC1=O here?
Answer: The ED was 3.08 nM/kg.

Question: How did the Kb (Vasopressin V1a receptor) turn out when CCOc1ccc(C[C@@H]2NC(=O)CC3(CCCCC3)SSC[C@H](C(=O)N3CCC[C@H]3C(=O)N[C@@H](CCCN=C(N)N)C(=O)NCC(N)=O)NC(=O)[C@H](CC(N)=O)NC(=O)[C@H](C(C)C)NC(=O)[C@H](Cc3ccccc3)NC2=O)cc1 was run?
Answer: The Kb was 64.6 nM.

Question: How did the Oxytocic activity [2] turn out when CC[C@H](C)[C@@H]1NC(=O)[C@H](Cc2ccc(O)cc2)NC(=O)[C@H](N)CSSC[C@H](C(=O)N2CCC[C@H]2C(=O)N[C@@H](CC(C)C)C(=O)NCC(N)=O)NC(=O)[C@H](CC(N)=O)NC(=O)[C@H](CCC(N)=O)NC1=O was run?
Answer: Its Oxytocic activity is 0.62 U mg-1.

Question: And the Antidiuretic activity [3]?
Answer: Its Antidiuretic activity is < 0.002 U mg-1.

Question: With CC[C@H](C)[C@@H]1NC(=O)[C@@H](Cc2c[nH]c3ccccc23)NC(=O)CC2(CCCCC2)SSC[C@@H](C(=O)N2CCC[C@H]2C(=O)N[C@@H](CCCN=C(N)N)C(=O)NCC(N)=O)NC(=O)[C@H](CC(N)=O)NC(=O)[C@H](CCC(N)=O)NC1=O ([dW]IQNCPRG-NH2; linker N-5 via X2) as the compound, how does the Kb (Vasopressin V2 receptor) read?
Answer: The Kb was > 1260 nM.

Question: And the Kb (Vasopressin V1a receptor)?
Answer: The Kb was 27.5 nM.

Question: CC[C@H](C)[C@@H]1NC(=O)[C@@H](Cc2c[nH]c3ccccc23)NC(=O)CC2(CCCCC2)SSC[C@H](C(=O)N2CCC[C@H]2C(=O)N[C@@H](CCCN=C(N)N)C(=O)NCC(N)=O)NC(=O)[C@H](CC(N)=O)NC(=O)[C@H](CCC(N)=O)NC1=O ([dW]IQN[dC]PRG-NH2; linker N-5 via X2) was tested. Which Kb (Vasopressin V2 receptor) did it give?
Answer: The Kb was > 2510 nM.

Question: What about the Kb (Vasopressin V1a receptor) of the same compound?
Answer: Its Kb is 29.5 nM.

Question: For CC[C@H](C)[C@@H]1NC(=O)[C@H](Cc2ccc(OC)cc2)NC(=O)CC2(CCCCC2)SSC[C@H](C(=O)N2CCC[C@H]2C(=O)N[C@@H](CCCN)C(=O)N[C@@H](Cc2ccc(O)cc2)C(N)=O)NC(=O)[C@H](CC(N)=O)NC(=O)[C@H]([C@@H](C)O)NC1=O, which Kb (Oxytocin receptor [4]) is on record?
Answer: The Kb was 38.9 nM.

Question: And the Kb (Vasopressin V2 receptor)?
Answer: Its Kb is 3160 nM.

Question: And the Kb (Oxytocin receptor [5])?
Answer: Its Kb is 11 nM.

Question: And the Kb (Vasopressin V1a receptor)?
Answer: The Kb was 148 nM.

Question: What about the Kb (Rattus norvegicus [6]) of the same compound?
Answer: Its Kb is 83.2 nM.

Question: Which results are given for CC(C)[C@@H]1NC(=O)[C@H](Cc2ccccc2)NC(=O)[C@@H](Cc2ccccc2)NC(=O)CC2(CCCCC2)SSC[C@@H](C(=O)N2CCC[C@H]2C(=O)N[C@@H](CCCN=C(N)N)C(=O)NCC(N)=O)NC(=O)[C@H](CC(N)=O)NC1=O?
Answer: Kb (Vasopressin V2 receptor): 8.51 nM; Kb (Vasopressin V1a receptor): 8.71 nM

Question: Which Kb (Rattus norvegicus [7]) does the source give for CCOc1ccc(C[C@@H]2NC(=O)CC3(CCCCC3)SSC[C@@H](C(=O)N3CCC[C@H]3C(=O)N[C@@H](CCCN=C(N)N)C(=O)NCC(N)=O)NC(=O)[C@H](CC(N)=O)NC(=O)[C@H](C(C)C)NC(=O)[C@H](Cc3ccccc3)NC2=O)cc1 here?
Answer: The Kb was 182 nM.

Question: What about the ED (Rattus norvegicus [8]) of the same compound?
Answer: The ED was 13 nM/kg.

Question: And the ED [9]?
Answer: The ED was 1.9 nM/kg.

Question: What about the Kb (Vasopressin V1a receptor) of the same compound?
Answer: The Kb was 6.92 nM.

Question: And the ED [10]?
Answer: Its ED is 0.14 nM/kg.

Question: Which ED (Rattus norvegicus [8]) does the source give for CCOc1ccc(C[C@H]2NC(=O)CC3(CCCCC3)SSC[C@H](C(=O)N3CCC[C@H]3C(=O)N[C@@H](CCCN=C(N)N)C(=O)NCC(N)=O)NC(=O)[C@H](CC(N)=O)NC(=O)[C@H](C(C)C)NC(=O)[C@H](Cc3ccccc3)NC2=O)cc1 here?
Answer: Its ED is 4.8 nM/kg.

Question: How did the Kb (Oxytocin receptor [4]) turn out when CC[C@H](C)[C@@H]1NC(=O)[C@H](Cc2ccc(OC)cc2)NC(=O)CC2(CCCCC2)SSC[C@@H](C(=O)N2CCC[C@H]2C(=O)N[C@@H](CCCN)C(=O)O)NC(=O)[C@H](CC(N)=O)NC(=O)[C@H]([C@@H](C)O)NC1=O was run?
Answer: Its Kb is 5.75 nM.

Question: And the Kb (Vasopressin V2 receptor)?
Answer: Its Kb is 3160 nM.

Question: What about the Kb (Vasopressin V1a receptor) of the same compound?
Answer: Its Kb is 331 nM.

Question: And the Kb (Oxytocin receptor [11])?
Answer: Its Kb is 12.9 nM.

Question: What about the ED [10] of the same compound?
Answer: Its ED is 23 nM/kg.

Question: With CC[C@H](C)[C@@H]1NC(=O)[C@H](Cc2ccc(OC)cc2)NC(=O)CC2(CCCCC2)SSC[C@@H](C(=O)N2CCC[C@H]2C(=O)N[C@@H](CCCN)C(=O)NCC(N)=O)NC(=O)[C@H](CC(N)=O)NC(=O)[C@H](CCC(N)=O)NC1=O as the compound, how does the Kb (Oxytocin receptor [4]) read?
Answer: The Kb was 13.2 nM.

Question: And the Kb (Oxytocin receptor [5])?
Answer: Its Kb is 3.02 nM.

Question: And the Antidiuretic activity [9]?
Answer: Its Antidiuretic activity is 0.01 U mg-1.

Question: What about the Kb (Vasopressin V1a receptor) of the same compound?
Answer: Its Kb is 11 nM.

Question: And the ED [10]?
Answer: Its ED is 0.8 nM/kg.

Question: Which ED (Rattus norvegicus [1]) does the source give for CC[C@H](C)[C@@H]1NC(=O)[C@H](Cc2ccc(OC)cc2)NC(=O)CC2(CCCCC2)SSC[C@H](C(=O)N2CCC[C@H]2C(=O)N[C@@H](CCCN)C(=O)O)NC(=O)[C@H](CC(N)=O)NC(=O)[C@H]([C@@H](C)O)NC1=O here?
Answer: Its ED is 9.24 nM/kg.

Question: For N=C(N)NCCC[C@H](NC(=O)[C@@H]1CCCN1C(=O)[C@@H]1CSSC[C@H](N)C(=O)N[C@@H](Cc2ccc(O)cc2)C(=O)N[C@@H](Cc2ccccc2)C(=O)N[C@@H](CCC(N)=O)C(=O)N[C@@H](CC(N)=O)C(=O)N1)C(=O)NCC(N)=O, which Antidiuretic activity [3] is on record?
Answer: The Antidiuretic activity was 323 U mg-1.

Question: What about the Oxytocic activity [12] of the same compound?
Answer: Its Oxytocic activity is 25.5 U mg-1.

Reference: ChEMBL document CHEMBL1128364 (J Med Chem, 1995)
